Publication PMC4026384, “Antibacterial Activity of THAM Trisphenylguanide against Methicillin-Resistant Staphylococcus aureus” (PLoS ONE, 2014)
In brackets after ≈: the same amount, converted by molar mass.

Assays:
[1] = system: E. coli K91; assay: Bacterial viability assay; type: cell-based, Escherichia coli; details: one hour in PBS, CFU, ± SEM
Procedure: (§1) Supplementary file pone.0097742.s003.doc: Table S1 Bacterial viability assays. Bacteria were grown at 37°C to mid-log phase (OD600 ∼0.4). The bacteria were diluted to approximately 10^4 to 10^5 colony forming units (CFU) per milliliter and added to a solution of phosphate buffered saline (PBS, 16 mM phosphate, 0.14 M NaCl, pH 7.2) containing the compound at varied concentrations. Samples were incubated at 37°C for one hour and then plated on Luria Bertani (LB) agar at appropriate dilutions in PBS. The plates were incubated overnight at 37°C and colonies enumerated the following day. IC50s were calculated from graphs of CFU as a function of compound concentration. Chlorhexidine was used as a positive control. […] (DOC) Click here for additional data file.
(§2) Bacterial viability assays. Bacteria were grown at 37°C to mid-log phase (OD600 ~0.4). The bacteria were diluted to approximately 10^4 to 10^5 colony forming units (CFU) per milliliter and added to a solution of phosphate buffered saline (PBS, 16 mM phosphate, 0.14 M NaCl, pH 7.2) containing the compound at varied concentrations. Samples were incubated at 37°C for one hour and then plated on Luria Bertani (LB) agar at appropriate dilutions in PBS. The plates were incubated overnight at 37°C and colonies enumerated the following day. IC50s were calculated from graphs of CFU as a function of compound concentration. Chlorhexidine was used as a positive control.

[2] = system: HaCaT human keratinocytes; assay: Cell toxicity assay (MTS); type: cell-based; details: for CC50: MTS assay, concentration which killed 50% of the cells
Procedure: The HaCaT cell line was grown in Epilife medium (MEPI500Ca) with human keratinocyte growth supplement (Invitrogen, San Diego, CA). Both types of cells were harvested using Tryspin/EDTA and diluted to 1×10^5 cells per well in a 96-well plate. Ten concentrations covering five orders of magnitude were tested with six replicates per concentration. […] MTS/PMS solution (Promega, Madison, WI) was added to the wells and absorbance was measured at 490 nm two to four hours later. Data was analyzed using GraphPad Prism version 5.0 (GraphPad Software, La Jolla, CA) using a variable slope inhibition dose response curve.

[3] = system: Escherichia coli (strain K91); assay: Minimum inhibitory concentration (microdilution); type: cell-based; details: E. coli K91; LB media; median of at least 3 determinations
Procedure: (§3) Minimum inhibitory concentration (MIC) values were determined for those compounds showing the most antibacterial activity in the bacterial viability assays (see Supplemental Materials) against each of the strains of bacteria using a microdilution method in 96 well plates with LB media according to guidelines published by the British Society for Antimicrobial Chemotherapy. Minimum bactericidal concentrations (MBC) were determined by plating 10 µL and 100 µL from each well showing no signs of growth after overnight incubation of the MIC plates and determining the minimum concentration showing a 3-log reduction of viable bacteria. MIC and MBC were also determined in cation-adjusted Mueller-Hinton broth (Hardy Diagnostics, Santa Maria, CA) for some compounds and strains.

[4] = system: Pseudomonas aeruginosa (strain PA01); assay: Minimum inhibitory concentration (microdilution); type: cell-based; details: P. aeruginosa PA01; LB media; median of at least 3 determinations
Procedure: as §3

[5] = system: Acinetobacter baumannii ATCC 19606; assay: Minimum inhibitory concentration (microdilution); type: cell-based; details: A. baumannii ATCC 19606; LB media; median of at least 3 determinations
Procedure: as §3

[6] = system: Enterococcus faecalis ATCC V583; assay: Minimum inhibitory concentration (microdilution); type: cell-based; details: E. faecalis V583; LB media; median of at least 3 determinations
Procedure: as §3

[7] = system: Enterococcus faecalis MSU#10; assay: Minimum inhibitory concentration (microdilution); type: cell-based; details: E. faecalis MSU#10; LB media; median of at least 3 determinations
Procedure: as §3

[8] = system: Staphylococcus aureus RN4220; assay: Minimum inhibitory concentration (microdilution); type: cell-based; details: S. aureus RN4220; LB media; median of at least 3 determinations
Procedure: as §3

[9] = system: E. faecalis MSU#10; assay: Bacterial viability assay; type: cell-based, Enterococcus faecalis; details: E. faecalis MSU#10; one hour in PBS, CFU; ± SEM; read-out: IC50
Procedure: as §1, §2

[10] = system: E. faecalis V583; assay: Bacterial viability assay; type: cell-based, Enterococcus faecalis; details: one hour in PBS, CFU, ± SEM
Procedure: as §1, §2

[11] = system: P. aeruginosa PA01; assay: Bacterial viability assay; type: cell-based, Pseudomonas aeruginosa; details: one hour in PBS, CFU, ± SEM
Procedure: as §1, §2

[12] = system: S. aureus RN4220; assay: Bacterial viability assay; type: cell-based, Staphylococcus aureus; details: one hour in PBS, CFU, ± SEM
Procedure: (§4) Supplementary file pone.0097742.s003.doc: Table S1 Bacterial viability assays. Bacteria were grown at 37°C to mid-log phase (OD600 ∼0.4). The bacteria were diluted to approximately 10^4 to 10^5 colony forming units (CFU) per milliliter and added to a solution of phosphate buffered saline (PBS, 16 mM phosphate, 0.14 M NaCl, pH 7.2) containing the compound at varied concentrations. Samples were incubated at 37°C for one hour and then plated on Luria Bertani (LB) agar at appropriate dilutions in PBS. The plates were incubated overnight at 37°C and colonies enumerated the following day. IC50s were calculated from graphs of CFU as a function of compound concentration. Chlorhexidine was used as a positive control. Included are those guanide (G), biguanide (BG), phenylguanide (ΦG) compounds that had some antibacterial activity in an initial screen at 30 and 100 µM, as well as their and parent amines. Compounds synthesized from 1,4-butanediamine, 1,6-hexanediamine, trisethylaminomelamine, trisbutylaminomelamine, and the dendrimer PAMAM (G0) were not active against E. coli, P aeruginosa, or S. aureus so they were not tested against the remaining bacteria (data not shown). (DOC) Click here for additional data file.
as §4, with “Bacterial” for “Supplementary file pone.0097742.s003.doc: Table S1 Bacterial”, “~0.4).” for “∼0.4).”, “μM,” for “µM,”, “shown).” for “shown). (DOC) Click here for additional data file.”

[13] = system: MRSA strain LAC, USA300; assay: Minimum inhibitory concentration (microdilution); type: cell-based, Staphylococcus aureus; details: MRSA USA300; LB media; median of at least 3 determinations
Procedure: as §3

[14] = system: MRSA USA300; assay: Bacterial viability assay; type: cell-based, Staphylococcus aureus; details: one hour in PBS, CFU, ± SEM
Procedure: as §1, §2

[15] = system: A. baumannii ATCC 19606; assay: Bacterial viability assay; type: cell-based, Acinetobacter baumannii; details: one hour in PBS, CFU, ± SEM
Procedure: as §1, §2

[16] = system: A. baumannii ATCC BAA1605; assay: Bacterial viability assay; type: cell-based, Acinetobacter baumannii; details: one hour in PBS, CFU, ± SEM
Procedure: as §1, §2

SMILES: N=C(NCCCCCCCCNc1nc(NCCCCCCCCNC(=N)Nc2ccccc2)nc(NCCCCCCCCNC(=N)Nc2ccccc2)n1)Nc1ccccc1 [TOAM-3ΦG]
- IC50 [1]: 0.33 ± 0.11 µM
- Relative to chlorhexidine (factor by which cytotoxicity was reduced) [2]: 1.3
- CC50 [2]: 2.4 µg/mL (≈ 2.78 µM)
- MIC [3]: 2 µg/mL (≈ 2.32 µM)
- MIC [4]: >64 µg/mL
- MIC [5]: >64 µg/mL
- MIC [6]: 4 µg/mL (≈ 4.64 µM)
- MIC [7]: 2 µg/mL (≈ 2.32 µM)
- MIC [8]: 2 µg/mL (≈ 2.32 µM)
- IC50 [9]: 1.2 ± 0.1 µM
- IC50 [10]: 1.7 ± 0.4 µM
- IC50 [11]: 1 ± 0.3 µM
- IC50 [12]: 0.54 ± 0.09 µM
- MIC [13]: 2 µg/mL (≈ 2.32 µM)
- IC50 [14]: 0.24 ± 0.03 µM
- IC50 [15]: 0.45 ± 0.23 µM
- IC50 [16]: 1.7 µM

SMILES: NCCCCCCCCNc1nc(NCCCCCCCCN)nc(NCCCCCCCCN)n1 [TOAM]
- IC50 [1]: 3.9 ± 0.3 µM
- Relative to chlorhexidine (factor by which cytotoxicity was reduced) [2]: 2.1
- CC50 [2]: 4.1 µg/mL (≈ 8.07 µM)
- MIC [3]: >64 µg/mL
- MIC [4]: 64 µg/mL (≈ 126 µM)
- MIC [5]: >64 µg/mL
- MIC [6]: >64 µg/mL
- MIC [7]: >64 µg/mL
- MIC [8]: >64 µg/mL
- IC50 [9]: 77 ± 30 µM
- IC50 [10]: > 100 µM
- IC50 [11]: > 100 µM
- IC50 [12]: > 100 µM
- MIC [13]: 48 µg/mL (≈ 94.5 µM)
- IC50 [14]: 30 µM
- IC50 [15]: 3.9 ± 2 µM
- IC50 [16]: 1.3 ± 0.6 µM
